Legend:
[1] = DPPH radical-scavenging activity; details: read-out: DPPH (IC50); mean ± SE, three replicates
Method: In vitro biological activities
(§1) The 1,1-Diphenyl-2-picryl-hydrazyl (DPPH) radical scavenging activities were evaluated using the method described by Rahman et al. An antioxidant substance capable of donating a
(§2) hydrogen atom to a solution containing DPPH- can reduce the stable free radical, causing the solution
(§3) to change color from violet to pale yellow. The remaining DPPH- radical was quantified by
(§4) nm using a spectroscopic method. Two milliliters of a DPPH solution (100 µM) in ethanol were mixed
(§5) with 2 mL of the sample (at each concentration). The reaction mixture for each concentration was
(§6) thoroughly vortexed and then incubated in the dark at room temperature for 30 minutes. The
(§7) absorbance was then measured spectrophotometrically at 518 nm against a blank (ethanol). For the
(§8) control, 2 mL of ethanol was added instead of the sample and run simultaneously with the test.
(§9) Ascorbic acid was used at the same concentrations as a positive control. Percent inhibition of the
(§10) DPPH free radical was calculated. The median inhibitory concentration (IC 50) for each tested

[2] = Total antioxidant capacity (TAC), phosphomolybdenum method; details: equal concentrations (1000 µg/mL); mean ± SE, three replicates
Method: (§11) All in vitro biological activities were assessed in the tested compounds at equal concentrations (1000 µg/mL). All assays were carried out in triplicate.
In vitro biological activities
(§12) The total antioxidant capacity (TAC) was determined by analyzing the green phosphate/Mo5+ complex at a wavelength (λ) of 695 nm, following the procedure described by Prieto
(§13) et al. Samples (at each concentration) were mixed with a reagent solution containing 0.3 N sulfuric
(§14) acid, 28 mM sodium phosphate, and 4 mM ammonium molybdate. Methanol (80%) was used in place
(§15) of the sample for the blank. The tubes were sealed and incubated in a boiling water bath for 90
(§16) minutes. After cooling to room temperature, the absorbance was measured at 695 nm against the
(§17) blank. Ascorbic acid was used at the same concentrations as a standard. The antioxidant capacity was
(§18) expressed as mg gallic acid equivalent per gram weight.
(§19) The iron reducing power was determined as µg/mL using the method proposed by Oyaizu
(§20) In brief, 1ml of the tested sample (at each concentration) was combined with 1mL of 200mM
(§21) sodium phosphate buffer (pH 6.6) and 1mL of 1% potassium ferricyanide. The mixture was then
(§22) incubated at 50°C for 20 minutes, followed by the addition of 1mL of trichloroacetic acid (10%). After
(§23) centrifugation at 2000rpm for 10 minutes, the upper layer solution (2.5 mL) was mixed with 2.5 mL of double deionized water and 1mL of fresh ferric chloride (0.1%). The absorbance was measured at
(§24) 700nm against a blank prepared without the sample. Ascorbic acid was used at the same
(§25) concentrations as a standard. A high absorbance at 700nm indicates a higher reducing power in the
as §1, §2, §3, §4, §5, §6, §7, §8, §9, §10
(§26) The procedure for the 2,2'-azinobis-(3-ethylbenzothiazoline-6-sulfonic acid) (ABTS) assay
(§27) potassium persulfate solution (2.4 mM). The working solution was prepared by mixing the two stock
(§28) solutions in equal quantities and allowing them to react at room temperature in a dark place for 14
(§29) hours. The solution was then diluted by mixing 1 mL of ABTS solution with 60 mL of methanol to
(§30) was prepared for each assay. The tested samples (at each concentration) were allowed to react with 1
(§31) mL of the ABTS solution, and the absorbance was taken at 734 nm after 7 minutes using a
(§32) spectrophotometer. The ABTS scavenging capacities of the samples were compared with that of
(§33) ascorbic acid (at the same concentrations).

[3] = target: acetylcholinesterase (AChE) (Homo sapiens, UniProt P22303); test: biochemical; details: same concentration (1000 µg/mL); mean ± SE
α-amylase = test: α-Amylase inhibition (anti-diabetic); type: biochemical; details: equal concentrations (1000 µg/mL); mean ± SE
[4] = Iron-reducing power (IRP); details: equal concentrations (1000 µg/mL); mean ± SE, three replicates
Method: as §11
In vitro biological activities
as §12, §13, §14, §15, §16, §17, §18, §19, §20, §21, §22, §23, §24, §25, §1, §2, §3, §4, §5, §6, §7, §8, §9, §10, §26, §27, §28, §29, §30, §31, §32, §33

[5] = target: bovine serum albumin (BSA) (Bos taurus, UniProt P02769); details: equal concentrations (1000 µg/mL); mean ± SE
bovine serum albumin (BSA), sequence (P02769 25-607): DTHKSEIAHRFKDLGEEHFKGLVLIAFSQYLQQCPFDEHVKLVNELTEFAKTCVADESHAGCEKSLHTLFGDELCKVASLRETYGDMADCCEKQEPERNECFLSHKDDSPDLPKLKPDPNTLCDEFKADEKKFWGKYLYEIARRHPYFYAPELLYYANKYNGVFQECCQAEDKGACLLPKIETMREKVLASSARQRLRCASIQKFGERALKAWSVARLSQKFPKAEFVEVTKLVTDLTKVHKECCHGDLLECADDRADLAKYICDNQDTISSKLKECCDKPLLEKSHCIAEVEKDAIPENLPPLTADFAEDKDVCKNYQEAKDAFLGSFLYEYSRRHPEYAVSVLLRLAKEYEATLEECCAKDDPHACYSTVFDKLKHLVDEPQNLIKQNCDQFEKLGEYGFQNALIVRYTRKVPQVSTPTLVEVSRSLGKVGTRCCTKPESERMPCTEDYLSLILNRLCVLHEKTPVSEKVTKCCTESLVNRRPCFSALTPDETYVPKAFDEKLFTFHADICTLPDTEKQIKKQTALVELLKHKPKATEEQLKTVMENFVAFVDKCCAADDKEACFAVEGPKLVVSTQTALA

α-glucosidase = test: α-Glucosidase inhibition (anti-diabetic); type: biochemical; details: equal concentrations (1000 µg/mL); mean ± SE
[6] = system: proteinase enzyme (trypsin); test: Proteinase enzyme inhibition (anti-inflammatory); type: biochemical; details: equal concentrations (1000 µg/mL); mean ± SE
[7] = ABTS radical scavenging assay; details: equal concentrations (1000 µg/mL); mean ± SE
Method: as §11
In vitro biological activities
as §12, §13, §14, §15, §16, §17, §18, §19, §20, §21, §22, §23, §24, §25, §1, §2, §3, §4, §5, §6, §7, §8, §9, §10, §26, §27, §28, §29, §30, §31, §32, §33

acetylcholinesterase (AChE), sequence (P22303 32-614, species assumed): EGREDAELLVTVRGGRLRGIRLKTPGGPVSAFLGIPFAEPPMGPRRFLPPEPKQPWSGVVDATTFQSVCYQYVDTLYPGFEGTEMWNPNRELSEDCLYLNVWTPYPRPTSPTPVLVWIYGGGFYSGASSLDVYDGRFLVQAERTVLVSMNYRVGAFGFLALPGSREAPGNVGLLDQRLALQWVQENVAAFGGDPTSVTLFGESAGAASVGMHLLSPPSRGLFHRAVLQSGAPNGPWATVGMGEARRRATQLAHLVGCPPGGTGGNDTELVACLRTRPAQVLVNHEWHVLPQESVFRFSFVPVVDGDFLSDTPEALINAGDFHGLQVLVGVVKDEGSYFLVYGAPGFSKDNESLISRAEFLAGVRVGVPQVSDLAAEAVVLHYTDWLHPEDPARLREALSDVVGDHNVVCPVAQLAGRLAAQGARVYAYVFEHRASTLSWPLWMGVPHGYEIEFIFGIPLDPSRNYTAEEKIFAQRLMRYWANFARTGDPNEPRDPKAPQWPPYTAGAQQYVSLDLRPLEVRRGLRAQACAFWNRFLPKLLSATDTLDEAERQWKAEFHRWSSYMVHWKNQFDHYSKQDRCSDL

| SMILES | IC50 [1] [µM] | Total Antioxidant Capacity (TAC) [2] [mg Gallic Acid/g] | inhibition at 1000 µg/mL [3] [%] | Inhibition (%) α-Amylase (α-amylase) [%] | Iron-Reducing Power (IRP) [4] [µg/mL] | Inhibition (%) Protein Denaturation [5] [%] | Inhibition (%) α-Glucosidase (α-glucosidase) [%] | Inhibition (%) Proteinase [6] [%] | ABTS (%) inhibition [7] [%] |
| --- | --- | --- | --- | --- | --- | --- | --- | --- | --- |
| COc1ccc(Nc2n[nH]c(N=Cc3c(C)nn(-c4ccccc4)c3Cl)c2C(=O)Nc2ccc(C)cc2)cc1 [6e] | 38.94 ± 0.02 | 30.52 ± 0.11 | 24.56 ± 0.01 | 18.25 ± 0.03 | 20.02 ± 0.04 | 15.67 ± 0.02 | 15.69 ± 0.03 | 13.63 ± 0.02 | 44.08 ± 0.03 |
| COc1ccc(Nc2n[nH]c(N=Cc3c(C)nn(-c4ccccc4)c3Cl)c2C(=O)Nc2ccc(Cl)cc2)cc1 [6f] | 37.6 ± 0.02 | 30.47 ± 0.11 | 24.52 ± 0.01 | 18.22 ± 0.03 | 19.98 ± 0.04 | 15.64 ± 0.02 | 15.67 ± 0.03 | 13.60 ± 0.02 | 44.00 ± 0.03 |
| O=C(Nc1ccc(Cl)cc1)c1c(Nc2ccccc2)n[nH]c1/N=C/c1ccc(N2CCCCC2)cc1 [5c] | 42.86 ± 0.02 | 30.01 ± 0.11 | 24.15 ± 0.01 | 17.94 ± 0.03 | 19.68 ± 0.04 | 15.41 ± 0.02 | 15.43 ± 0.03 | 13.40 ± 0.02 | 43.34 ± 0.03 |
| Cc1ccc(NC(=O)c2c(Nc3ccccc3)n[nH]c2N=Cc2c(C)nn(-c3ccccc3)c2Cl)cc1 [6b] | 36.02 ± 0.02 | 34.93 ± 0.13 | 28.11 ± 0.02 | 20.89 ± 0.03 | 22.91 ± 0.04 | 17.94 ± 0.02 | 17.96 ± 0.03 | 15.60 ± 0.02 | 50.45 ± 0.03 |
| Cc1c(C=Nc2[nH]nc(Nc3ccccc3)c2C(=O)Nc2ccc(Cl)cc2)c(=O)n(-c2ccccc2)n1C [7c] | 40.72 ± 0.02 | 29.96 ± 0.11 | 24.11 ± 0.01 | 17.91 ± 0.03 | 19.65 ± 0.04 | 15.38 ± 0.02 | 15.41 ± 0.03 | 13.38 ± 0.02 | 43.27 ± 0.03 |
| COc1ccc(Nc2n[nH]c(N=Cc3c(C)n(C)n(-c4ccccc4)c3=O)c2C(=O)Nc2ccccc2)cc1 [7d] | 40.53 ± 0.02 | 30.36 ± 0.11 | 24.44 ± 0.01 | 18.16 ± 0.03 | 19.92 ± 0.04 | 15.59 ± 0.02 | 15.61 ± 0.03 | 13.56 ± 0.02 | 43.85 ± 0.03 |
| COc1ccc(Nc2n[nH]c(N=Cc3c(C)n(C)n(-c4ccccc4)c3=O)c2C(=O)Nc2ccc(C)cc2)cc1 [7e] | 51.98 ± 0.03 | 15.68 ± 0.06 | 12.62 ± 0.01 | 9.38 ± 0.02 | 10.29 ± 0.02 | 8.05 ± 0.01 | 8.07 ± 0.02 | 4.81 ± 0.01 | 22.65 ± 0.01 |
| COc1ccc(Nc2n[nH]c(N=Cc3c(C)nn(-c4ccccc4)c3Cl)c2C(=O)Nc2ccccc2)cc1 [6d] | 40.11 ± 0.02 | 30.42 ± 0.11 | 24.48 ± 0.01 | 18.19 ± 0.03 | 19.95 ± 0.04 | 15.62 ± 0.02 | 15.64 ± 0.03 | 13.58 ± 0.02 | 43.93 ± 0.03 |
| O=C1O[C@H]([C@@H](O)CO)C(O)=C1O [Ascorbic Acid, reference compound] | 29.3 ± 0.01 | 79.10 ± 0.11 |  |  | 71.85 ± 0.05 |  |  |  | 41.25 ± 0.01 |
| Cc1ccc(NC(=O)c2c(Nc3ccccc3)n[nH]c2/N=C/c2ccc(N3CCCCC3)cc2)cc1 [5b] | 59.8 ± 0.03 | 15.26 ± 0.06 | 12.28 ± 0.01 | 9.12 ± 0.01 | 10.01 ± 0.02 | 7.83 ± 0.01 | 7.85 ± 0.01 | 6.81 ± 0.01 | 22.03 ± 0.01 |
| Cc1ccc(NC(=O)c2c(Nc3ccccc3)n[nH]c2N=Cc2c(C)n(C)n(-c3ccccc3)c2=O)cc1 [7b] | 42.45 ± 0.02 | 29.91 ± 0.11 | 24.07 ± 0.01 | 17.88 ± 0.03 | 19.62 ± 0.04 | 15.36 ± 0.02 | 15.38 ± 0.03 | 13.35 ± 0.02 | 43.19 ± 0.03 |
| Cc1nn(-c2ccccc2)c(Cl)c1C=Nc1[nH]nc(Nc2ccccc2)c1C(=O)Nc1ccc(Cl)cc1 [6c] | 34.58 ± 0.02 | 34.99 ± 0.13 | 28.16 ± 0.02 | 20.92 ± 0.03 | 22.95 ± 0.05 | 17.97 ± 0.02 | 17.99 ± 0.03 | 15.62 ± 0.02 | 50.54 ± 0.03 |
| Cc1nn(-c2ccccc2)c(Cl)c1C=Nc1[nH]nc(Nc2ccccc2)c1C(=O)Nc1ccccc1 [6a] | 43.35 ± 0.02 | 29.86 ± 0.11 | 24.03 ± 0.01 | 17.85 ± 0.03 | 19.58 ± 0.04 | 15.33 ± 0.02 | 15.35 ± 0.03 | 13.33 ± 0.02 | 43.12 ± 0.03 |
| C[C@H]1O[C@H](O[C@H]2[C@H](O)[C@@H](O)[C@@H](O[C@H]3[C@H](O)[C@@H](O)C(O)O[C@@H]3CO)O[C@@H]2CO)[C@H](O)[C@@H](O)[C@@H]1N[C@H]1C=C(CO)[C@@H](O)[C@H](O)[C@H]1O (stereo partly drawn) [Acarbose, reference compound] |  |  |  | 76.58 ± 0.01 |  |  | 53.94 ± 0.01 |  |  |

— article PMC11125359 (Pharmaceuticals, 2024)
